# Measured values reported in patent US12098148B2, “Therapeutic compounds” (C4X Discovery Limited, priority 2018, dated 2024).
# What was measured:
# [1] = test system: NQO1 mRNA in BEAS-2B cells; assay: Beas2B NQO1 mRNA cell based assay; set-up: species or system human; conditions: Homo sapiens, BEAS-2B, 24 h, 24 h compound treatment, increase in NQO1 mRNA vs vehicle (0.1% DMSO), read-out: EC50
# How it was run: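 Relative NQO1 transcript level derived by ΔΔCT with human β-actin as internal control, using direct-lysate one-step RT-qPCR. Cells were BEAS-2B, plated overnight then treated with compound for 24 h.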
# [2] = target: human KEAP1 (N-term, residues 321-609) (Homo sapiens, UniProt Q14145); assay: biochemical;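 further: fluorescence polarization competition assay of Kelch domain binding to NRF2, 12-point 1:3 dilution series from 10 µM, read after 1 h at room temperature, floor 10 nM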
# human KEAP1 (N-term, residues 321-609), sequence (Q14145 321-609): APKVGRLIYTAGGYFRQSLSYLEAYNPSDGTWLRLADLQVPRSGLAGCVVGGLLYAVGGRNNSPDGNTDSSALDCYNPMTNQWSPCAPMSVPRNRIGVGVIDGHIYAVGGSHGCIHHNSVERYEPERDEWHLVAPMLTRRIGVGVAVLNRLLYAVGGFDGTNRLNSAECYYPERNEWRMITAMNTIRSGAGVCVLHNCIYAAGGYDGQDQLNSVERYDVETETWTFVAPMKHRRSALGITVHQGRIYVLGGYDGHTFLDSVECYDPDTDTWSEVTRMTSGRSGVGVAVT
SMILES,EC50 [1] [nM],IC50 [2] [nM]
"C[C@H]1CCC(=O)N1C[C@@H]1c2c(OCc3nnn(C)c3C(F)F)ccc(Cl)c2CCN1C(=O)[C@@H]1CCCC[C@]1(C)C(=O)O [Example 195, (1S,2R)-2-((S)-5-chloro-8-((5-(difluoromethyl)-1-methyl-1H-1,2,3-triazol-4-yl)methoxy)-1-(((S)-2-methyl-5-oxopyrrolidin-1-yl)methyl)-1,2,3,4-tetrahydroisoquinoline-2-carbonyl)-1-methylcyclohexane-1-carboxylic acid]",6.8,13
C[C@]1(C(=O)O)CCCC[C@H]1C(=O)N1CCc2c(Cl)ccc(OCc3nnn4c3CCCC4)c2[C@H]1CN1CCOCC1=O [Example 196],0.97,5.6
"Cn1nnc(COc2ccc(Br)c3c2[C@@H](CN2CC4(CC4)CC2=O)N(C(=O)[C@@H]2CCCC[C@]2(C)C(=O)O)CC3)c1C(F)F [Example 198, (1S,2R)-2-((S)-5-bromo-8-((5-(difluoromethyl)-1-methyl-1H-1,2,3-triazol-4-yl)methoxy)-1-((6-oxo-5-azaspiro [2.4]heptan-5-yl)methyl)-1,2,3,4-tetrahydroisoquinoline-2-carbonyl)-1-methylcyclohexane-1-carboxylic acid]",0.24,5.2
"Cn1nnc(COc2ccc(Cl)c3c2[C@@H](CN2CC4(CC4)CC2=O)N(C(=O)[C@@H]2CCCC[C@]2(C)C(=O)O)CC3)c1C1COC1 [Example 199, (1S,2R)-2-((S)-5-chloro-8-((1-methyl-5-(oxetan-3-yl)-1H-1,2,3-triazol-4-yl)methoxy)-1-((6-oxo-5-azaspiro [2.4]heptan-5-yl)methyl)-1,2,3,4-tetrahydroisoquinoline-2-carbonyl)-1-methylcyclohexane-1-carboxylic acid]",0.34,5.3
"Cn1nnc(COc2ccc(Cl)c3c2[C@@H](CN2CCOCC2=O)N(C(=O)[C@@H]2CCCC[C@]2(C)C(=O)O)CC3)c1C(F)F [Example 200, (1S,2R)-2-((S)-5-chloro-8-((5-(difluoromethyl)-1-methyl-1H-1,2,3-triazol-4-yl)methoxy)-1-((3-oxomorpholino)methyl)-1,2,3,4-tetrahydroisoquinoline-2-carbonyl)-1-methylcyclohexane-1-carboxylic acid]",1.2,5.1
"Cn1nnc(COc2ccc(Cl)c3c2[C@@H](CN2CC4(CC4)CC2=O)N(C(=O)[C@@H]2CC=CC[C@]2(C)C(=O)O)CC3)c1C(F)F [Example 201, (1S,6R)-6-((S)-5-chloro-8-((5-(difluoromethyl)-1-methyl-1H-1,2,3-triazol-4-yl)methoxy)-1-((6-oxo-5-azaspiro[2.4]heptan-5-yl)methyl)-1,2,3,4-tetrahydroisoquinoline-2-carbonyl)-1-methylcyclohex-3-ene-1-carboxylic acid]",0.33,3.3
"Cn1nnc(COc2c(F)cc(Cl)c3c2[C@@H](CN2CC4(CC4)CC2=O)N(C(=O)[C@@H]2CCCC[C@]2(C)C(=O)O)CC3)c1C(F)F [Example 203, (1S,2R)-2-((S)-5-chloro-8-((5-(difluoromethyl)-1-methyl-1H-1,2,3-triazol-4-yl)methoxy)-7-fluoro-1-((6-oxo-5-azaspiro[2.4]heptan-5-yl)methyl)-1,2,3,4-tetrahydroisoquinoline-2-carbonyl)-1-methylcyclohexane-1-carboxylic acid]",0.4,6.2
"C[C@]1(C(=O)O)CCCC[C@H]1C(=O)N1CCc2c(Cl)ccc(OCc3ncsc3C(F)F)c2[C@H]1CN1CC2(CC2)CC1=O [Example 204, (1S,2R)-2-((S)-5-chloro-8-((5-(difluoromethyl)thiazol-4-yl)methoxy)-1-((6-oxo-5-azaspiro[2.4]heptan-5-yl)methyl)-1,2,3,4-tetrahydroisoquinoline-2-carbonyl)-1-methylcyclohexane-1-carboxylic acid]",13,6.9
"Cc1scnc1COc1ccc(Cl)c2c1[C@@H](CN1CC3(CC3)CC1=O)N(C(=O)[C@@H]1CCCC[C@]1(C)C(=O)O)CC2 [Example 205, (1S,2R)-2-((S)-5-chloro-8-((5-methylthiazol-4-yl)methoxy)-1-((6-oxo-5-azaspiro[2.4]heptan-5-yl)methyl)-1,2,3,4-tetrahydroisoquinoline-2-carbonyl)-1-methylcyclohexane-1-carboxylic acid]",19,5.5
"Cn1ncc(COc2ccc(Cl)c3c2[C@@H](CN2CC4(CC4)CC2=O)N(C(=O)[C@@H]2CCCC[C@]2(C)C(=O)O)CC3)n1 [Example 206, (1S,2R)-2-((S)-5-chloro-8-((2-methyl-2H-1,2,3-triazol-4-yl)methoxy)-1-((6-oxo-5-azaspiro[2.4]heptan-5-yl)methyl)-1,2,3,4-tetrahydroisoquinoline-2-carbonyl)-1-methylcyclohexane-1-carboxylic acid]",34,6.6
"Cn1nnc(COc2ccc(Cl)c3c2[C@@H](CN2CC4(CC4)CC2=O)N(C(=O)[C@@H]2C[C@@H]4C[C@@H]4C[C@]2(C)C(=O)O)CC3)c1C(F)F [Example 207, (1R,3S,4R,6S)-4-((S)-5-chloro-8-((5-(difluoromethyl)-1-methyl-1H-1,2,3-triazol-4-yl)methoxy)-1-((6-oxo-5-azaspiro[2.4]heptan-5-yl)methyl)-1,2,3,4-tetrahydroisoquinoline-2-carbonyl)-3-methylbicyclo[4.1.0]heptane-3-carboxylic acid]",0.89,5.1
"Cn1nnc(COc2ccc(Cl)c3c2[C@@H](CN2CC4(CC4)CC2=O)N(C(=O)[C@@H]2C[C@H]4C[C@H]4C[C@]2(C)C(=O)O)CC3)c1C(F)F [Example 208, (1S,3S,4R,6R)-4-((S)-5-chloro-8-((5-(difluoromethyl)-1-methyl-1H-1,2,3-triazol-4-yl)methoxy)-1-((6-oxo-5-azaspiro[2.4]heptan-5-yl)methyl)-1,2,3,4-tetrahydroisoquinoline-2-carbonyl)-3-methylbicyclo[4.1.0]heptane-3-carboxylic acid]",3300,580
"C[C@]1(C(=O)O)CCCC[C@H]1C(=O)N1CCc2c(Cl)ccc(OC3CCn4cnnc43)c2[C@H]1CN1CC2(CC2)CC1=O (stereo partly drawn) [Example 209, (1S,2R)-2-((1S)-5-chloro-8-((6,7-dihydro-5H-pyrrolo [2,1-c][1,2,4]triazol-7-yl)oxy)-1-((6-oxo-5-azaspiro[2.4]heptan-5-yl)methyl)-1,2,3,4-tetrahydroisoquinoline-2-carbonyl)-1-methylcyclohexane-1-carboxylic acid]",290,8.4
"[2H][C@@H]1C[C@@H](C(=O)N2CCc3c(Cl)ccc(OCc4nnn(C)c4C(F)F)c3[C@H]2CN2CC3(CC3)CC2=O)[C@@](C)(C(=O)O)C[C@@H]1[2H] [Example 210, (1S,2R,4S,5R)-2-((S)-5-chloro-8-((5-(difluoromethyl)-1-methyl-1H-1,2,3-triazol-4-yl)methoxy)-1-((6-oxo-5-azaspiro[2.4]heptan-5-yl)methyl)-1,2,3,4-tetrahydroisoquinoline-2-carbonyl)-1-methylcyclohexane-1-carboxylic-4,5-d2 acid]",0.24,5.9
"Cn1cccc(COc2ccc(Cl)c3c2[C@@H](CN2CC4(CC4)CC2=O)N(C(=O)[C@@H]2CCCC[C@]2(C)C(=O)O)CC3)c1=O [Example 211, (1S,2R)-2-((S)-5-chloro-8-((1-methyl-2-oxo-1,2-dihydropyridin-3-yl)methoxy)-1-((6-oxo-5-azaspiro[2.4]heptan-5-yl)methyl)-1,2,3,4-tetrahydroisoquinoline-2-carbonyl)-1-methylcyclohexane-1-carboxylic acid]",43,6.8
"Cn1c(COc2ccc(Cl)c3c2[C@@H](CN2CC4(CC4)CC2=O)N(C(=O)[C@@H]2CCCC[C@]2(C)C(=O)O)CC3)cccc1=O [Example 214, (1S,2R)-2-((S)-5-chloro-8-((1-methyl-6-oxo-1,6-dihydropyridin-2-yl)methoxy)-1-((6-oxo-5-azaspiro [2.4]heptan-5-yl)methyl)-1,2,3,4-tetrahydroisoquinoline-2-carbonyl)-1-methylcyclohexane-1-carboxylic acid]",41,5.2
"Cn1nnc(COc2ccc(Cl)c3c2[C@@H](CN2CC4(CC4)CC2=O)N(C(=O)[C@@H]2CC(F)(F)CC[C@]2(C)C(=O)O)CC3)c1C(F)F [Example 217, (1S,2R)-2-((S)-5-chloro-8-((5-(difluoromethyl)-1-methyl-1H-1,2,3-triazol-4-yl)methoxy)-1-((6-oxo-5-azaspiro[2.4]heptan-5-yl)methyl)-1,2,3,4-tetrahydroisoquinoline-2-carbonyl)-4,4-difluoro-1-methylcyclohexane-1-carboxylic acid]",43,9.8
"Cn1nnc(COc2ccc(Cl)c3c2[C@@H](CN2CC4(CC4)CC2=O)N(C(=O)[C@@H]2C[C@@H](F)CC[C@]2(C)C(=O)O)CC3)c1C(F)F [Example 218, (1S,2R,4S)-2-((S)-5-chloro-8-((5-(difluoromethyl)-1-methyl-1H-1,2,3-triazol-4-yl)methoxy)-1-((6-oxo-5-azaspiro[2.4]heptan-5-yl)methyl)-1,2,3,4-tetrahydroisoquinoline-2-carbonyl)-4-fluoro-1-methylcyclohexane-1-carboxylic acid]",0.98,6.8
"[2H][C@@H]1CC[C@](C)(C(=O)O)[C@H](C(=O)N2CCc3c(Cl)ccc(OCc4nnn(C)c4C(F)F)c3[C@H]2CN2CC3(CC3)CC2=O)C1 [Example 219, (1S,2R,4R)-2-((S)-5-chloro-8-((5-(difluoromethyl)-1-methyl-1H-1,2,3-triazol-4-yl)methoxy)-1-((6-oxo-5-azaspiro[2.4]heptan-5-yl)methyl)-1,2,3,4-tetrahydroisoquinoline-2-carbonyl)-1-methylcyclohexane-1-carboxylic-4-d acid]",0.18,5.3
